Source: patent US8399417B2, “Food” (Ajinomoto Co., Inc., priority 2007, dated 2013)

Assays:
Format in all cases: in vivo, human
[1] = Fat-like richness and smoothness imparted to low-fat milk, quantitative sensory evaluation test; settings: for Taste profile / Fat-like richness / Smoothness: Table 8; for Fat-like richness / Smoothness: n=12, control 0, strong 3, very strong 5 points
Description: (§1) The quantitative sensory evaluation test was performed as follows. Each of γ-Glu-Cys-Gly (glutathione), γ-Glu-Val-Gly, and γ-Glu-Abu-Gly was mixed with commercially-available low-fat milk (non-fat milk solids content: 8.6% or more, milk fat content: 1.5%) at a concentration of 0.00001 to 1 g/dl, and the intensity of imparting fat-like richness was measured.
It should be noted that each peptide was dissolved in low-fat milk, and then a sample, the pH of which was lowered, was adjusted with NaOH so that the pH might be ±0.2 with respect to the pH of the low-fat milk free of peptide.
The sensory score for fat-like richness and smoothness was defined as follows: control (free of peptide): 0 point; strong: 3 points; and very strong: 5 points. Then, the test was performed with n=12. […] As clear from Table 6, it was confirmed that the peptide imparted fat-like richness and smoothness to low-fat milk at a lower concentration than glutathione.
as §1, with “γ-Glu-Val-Gly” for “γ-Glu-Cys-Gly (glutathione), γ-Glu-Val-Gly,”, “cinacalcet” for “γ-Glu-Abu-Gly”
It should be noted that each sample was dissolved in low-fat milk, and then a sample, the pH of which was lowered, was adjusted with NaOH so that the pH might be ±0.2 with respect to the pH of the low-fat milk free of a sample.
(§2) The sensory score for fat-like richness and smoothness was defined as follows: control (free of sample): 0 point; strong: 3 points; and very strong: 5 points. Then, the test was performed with n=12.

[2] = Fat-like richness and smoothness imparted to low-fat yogurt, quantitative sensory evaluation test; settings: Table 10; for Fat-like richness / Smoothness: n=12, control 0, strong 3, very strong 5 points
Description: The quantitative sensory evaluation test was performed as follows. Each of γ-Glu-Val-Gly and cinacalcet was mixed with commercially-available low-fat yogurt (non-fat milk solids content: 10.0%, milk fat content: 1.0%) at a concentration of 0.00001 to 1 g/dl, and the intensity of imparting fat-like richness was measured.
It should be noted that after each sample was dissolved in low-fat yogurt, and a sample, the pH of which was lowered, was adjusted with NaOH so that the pH might be ±0.2 with respect to the pH of the […] free of a sample.
as §2

[3] = Fat-like richness and smoothness imparted to low-calorie mayonnaise, quantitative sensory evaluation test; settings: for Taste profile / Fat-like richness / Smoothness: Table 9; for Fat-like richness / Smoothness: control 0, strong 3, very strong 5 points
Description: In the same manner as that in Example 1 except that commercially-available low-calorie mayonnaise (having a fat content reduced by 50% compared with a normal product) was used instead of low-fat milk, each peptide was measured for its fat-like richness-imparting intensity.
In the same manner as that in Example 2, each sample was measured for its intensity of imparting fat-like richness.

[4] = 0.0001 g/dl in low-calorie mayonnaise
[5] = 0.001 g/dl in low-calorie mayonnaise

C[C@@H](NCCCc1cccc(C(F)(F)F)c1)c1cccc2ccccc12 [Cinacalcet, (R)—N-(3-(3-(trifluoromethyl)phenyl)propyl)-1-(1-naphthyl)ethylamine, reference compound]
Taste profile ([1]; 0.0001 g/dl in low-fat milk): Lasting is present in aftertaste. | Fat-like richness ([1]; 0.0001 g/dl in low-fat milk): 1.3 points | Smoothness ([1]; 0.0001 g/dl in low-fat milk): 1.7 points | Taste profile ([1]; 0.001 g/dl in low-fat milk): Thickness and lasting | Fat-like richness ([1]; 0.001 g/dl in low-fat milk): 4.0 points | Smoothness ([1]; 0.001 g/dl in low-fat milk): 4.2 points | concentration at which fat-like richness and smoothness are imparted, compared with γ-Glu-Val-Gly ([1]; low-fat milk, conclusion from Table 8): comparable concentration to γ-Glu-Val-Gly | Taste profile ([2]; 0.0001 g/dl in low-fat yogurt): Lasting is present in aftertaste. | Fat-like richness ([2]; 0.0001 g/dl in low-fat yogurt): 1.5 points | Smoothness ([2]; 0.0001 g/dl in low-fat yogurt): 2.0 points | Fat-like richness ([2]; 0.001 g/dl in low-fat yogurt (milk fat 1.0%)): 4.0 points | Taste profile ([2]; 0.001 g/dl in low-fat yogurt): Lasting is present in aftertaste. | Smoothness ([2]; 0.001 g/dl in low-fat yogurt): 4.5 points | Taste profile [3, 4]: Lasting is present in aftertaste. | Fat-like richness [3, 4]: 1.8 points | Smoothness [3, 4]: 2.5 points | Taste profile [3, 5]: Thickness and lasting | Fat-like richness [3, 5]: 4.3 points | Smoothness [3, 5]: 4.8 points | concentration at which fat-like richness and smoothness are imparted, compared with γ-Glu-Val-Gly ([3]; low-calorie mayonnaise, conclusion from Table 9): comparable concentration to γ-Glu-Val-Gly
